In ChEMBL document CHEMBL5113463, “Discovery and preclinical evaluations of JBD0131, a novel nitrodihydro-imidazooxazole anti-tuberculosis agent” (Bioorg Med Chem Lett, 2022):
pIC50: −log10 of the molar value. Values after ≈ are worked out from the molar mass of the structure shown.

Columns and labels:
[1] = test system: Mycobacterium tuberculosis; assay: Antimycobacterial activity against clinical isolate drug susceptible Mycobacterium tuberculosis H37Rv assessed as bacterial growth inhibition; type: functional
[2] = Oral bioavailability in CD-1 mouse at 5 mg/kg; type: ADME, organism-based; conditions: mouse, in vivo, po, 5 mg/kg
[3] = AUC (0-last) in Sprague-Dawley rat at 4 mg/kg, po; type: ADME, organism-based; conditions: in vivo
Cytochrome P450 1A2 = molecular target: T1, Cytochrome P450 1A2 (Homo sapiens, UniProt P05177); assay: Inhibition of CYP1A2 (unknown origin); type: ADME
T1 sequence (P05177 whole entry): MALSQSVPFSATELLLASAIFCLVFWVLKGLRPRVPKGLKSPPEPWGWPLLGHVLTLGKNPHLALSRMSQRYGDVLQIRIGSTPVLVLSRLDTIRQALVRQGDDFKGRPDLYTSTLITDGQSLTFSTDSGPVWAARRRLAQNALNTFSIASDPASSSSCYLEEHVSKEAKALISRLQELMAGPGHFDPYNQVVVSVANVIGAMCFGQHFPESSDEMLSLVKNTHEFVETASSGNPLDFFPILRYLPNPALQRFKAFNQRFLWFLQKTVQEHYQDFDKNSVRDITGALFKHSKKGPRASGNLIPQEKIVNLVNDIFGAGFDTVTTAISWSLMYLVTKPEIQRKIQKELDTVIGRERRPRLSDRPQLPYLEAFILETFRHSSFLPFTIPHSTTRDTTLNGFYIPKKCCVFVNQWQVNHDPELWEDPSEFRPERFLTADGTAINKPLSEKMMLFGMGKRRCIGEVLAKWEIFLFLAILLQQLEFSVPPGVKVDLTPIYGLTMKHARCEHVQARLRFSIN

Cytochrome P450 2B6 = molecular target: T2, Cytochrome P450 2B6 (Homo sapiens, UniProt P20813); assay: Inhibition of CYP2B6 (unknown origin); type: ADME
T2 sequence (P20813 whole entry): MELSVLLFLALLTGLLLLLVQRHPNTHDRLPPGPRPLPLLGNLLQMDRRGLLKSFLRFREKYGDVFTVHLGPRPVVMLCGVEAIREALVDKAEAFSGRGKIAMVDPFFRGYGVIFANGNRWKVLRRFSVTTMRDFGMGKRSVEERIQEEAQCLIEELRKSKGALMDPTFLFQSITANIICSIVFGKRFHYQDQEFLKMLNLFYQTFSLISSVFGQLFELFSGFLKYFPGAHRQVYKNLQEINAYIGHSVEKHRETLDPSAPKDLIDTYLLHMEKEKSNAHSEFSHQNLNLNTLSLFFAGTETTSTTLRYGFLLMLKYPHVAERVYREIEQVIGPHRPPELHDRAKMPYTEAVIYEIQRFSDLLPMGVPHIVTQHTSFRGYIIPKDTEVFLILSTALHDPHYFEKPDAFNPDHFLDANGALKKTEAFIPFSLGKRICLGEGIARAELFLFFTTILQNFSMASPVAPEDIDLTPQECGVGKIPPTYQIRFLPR

[4] = Half life in Beagle dog at 0.5 mg/kg, iv; type: ADME, organism-based, Canis lupus familiaris; conditions: in vivo
[5] = Aqueous solubility of compound at pH 2.0; type: physicochemical; conditions: buffer
[6] = Metabolic stability in mouse liver microsomes assessed as half life; type: ADME, Microsome
[7] = molecular target: Voltage-dependent L-type calcium channel subunit alpha-1C (Homo sapiens, UniProt Q13936); assay: Inhibition of human Cav1.2
[8] = Half life in Sprague-Dawley rat at 1 mg/kg, iv; type: ADME, organism-based; conditions: in vivo
[9] = Metabolic stability in rat liver microsomes assessed as half life; type: ADME, Microsome
[10] = test system: Mycobacterium tuberculosis; assay: Antimycobacterial activity against Mycobacterium tuberculosis Erdman assessed as bacterial growth inhibition; type: functional
[11] = test system: Mycobacterium tuberculosis; assay: Antimycobacterial activity against Mycobacterium tuberculosis H37Rv assessed as bacterial growth inhibition incubated for 7 days by MABA assay; type: functional; conditions: 168 h, time 7 day
[12] = Drug distribution in Sprague-Dawley rat kidney at 10 mg/kg, po administered as C14-lableled compound and assessed as radioactivity; type: ADME, organism-based; conditions: in vivo
[13] = Clearance in Beagle dog at 0.5 mg/kg, iv; type: ADME, organism-based, Canis lupus familiaris; conditions: in vivo
[14] = test system: Mycobacterium tuberculosis; assay: In vivo antimycobacterial activity against Mycobacterium tuberculosis Erdman infected mouse chronic tuberculosis infection model assessed as reduction log10 CFU at 10 to 100 mg/kg for 4 weeks at 5 days/week administered after 31 days post infection relative to control; type: functional; conditions: dose 10-100 mg/kg
[15] = test system: Mycobacterium tuberculosis; assay: Antimycobacterial activity against Mycobacterium tuberculosis H37Rv assessed as bacterial growth inhibition incubated for 10 days under hypoxic condition followed by 28 hrs incubation under normoxic condition by Low-Oxygen-Recovery Assay; type: functional; conditions: 264 h, time 11 day
[16] = Clearance in Sprague-Dawley rat at 1 mg/kg, iv; type: ADME, organism-based; conditions: in vivo
[17] = Plasma protein binding in mouse assessed as bound fraction; type: ADME, cell-free; conditions: read-out: PPB (converted)
[18] = molecular target: Sodium channel protein type 5 subunit alpha (Homo sapiens, UniProt Q14524); assay: Inhibition of NaV 1.5 (unknown origin)
[19] = Apparent permeability across basolateral to apical side in dog MDCK cells; type: ADME, cell-based, Canis lupus familiaris
Cytochrome P450 2C9 = Cytochrome P450 2C9 (Homo sapiens, UniProt P11712); assay: Inhibition of CYP2C9 (unknown origin); type: ADME
Chain of Cytochrome P450 2C9 (P11712 whole entry): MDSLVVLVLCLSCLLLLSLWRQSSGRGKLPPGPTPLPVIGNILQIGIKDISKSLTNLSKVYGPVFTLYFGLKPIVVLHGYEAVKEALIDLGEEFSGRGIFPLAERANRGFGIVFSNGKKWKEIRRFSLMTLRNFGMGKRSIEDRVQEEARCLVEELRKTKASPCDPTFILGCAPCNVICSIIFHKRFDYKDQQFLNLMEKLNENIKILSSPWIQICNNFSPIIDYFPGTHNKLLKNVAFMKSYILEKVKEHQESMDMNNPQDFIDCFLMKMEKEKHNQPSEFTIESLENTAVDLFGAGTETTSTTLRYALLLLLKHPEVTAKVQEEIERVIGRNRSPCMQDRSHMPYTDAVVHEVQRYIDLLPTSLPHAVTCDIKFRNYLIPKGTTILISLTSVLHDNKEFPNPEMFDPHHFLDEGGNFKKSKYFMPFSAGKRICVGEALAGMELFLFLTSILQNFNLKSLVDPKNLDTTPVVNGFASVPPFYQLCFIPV

Chain of Voltage-dependent L-type calcium channel subunit alpha-1C (Q13936 whole entry): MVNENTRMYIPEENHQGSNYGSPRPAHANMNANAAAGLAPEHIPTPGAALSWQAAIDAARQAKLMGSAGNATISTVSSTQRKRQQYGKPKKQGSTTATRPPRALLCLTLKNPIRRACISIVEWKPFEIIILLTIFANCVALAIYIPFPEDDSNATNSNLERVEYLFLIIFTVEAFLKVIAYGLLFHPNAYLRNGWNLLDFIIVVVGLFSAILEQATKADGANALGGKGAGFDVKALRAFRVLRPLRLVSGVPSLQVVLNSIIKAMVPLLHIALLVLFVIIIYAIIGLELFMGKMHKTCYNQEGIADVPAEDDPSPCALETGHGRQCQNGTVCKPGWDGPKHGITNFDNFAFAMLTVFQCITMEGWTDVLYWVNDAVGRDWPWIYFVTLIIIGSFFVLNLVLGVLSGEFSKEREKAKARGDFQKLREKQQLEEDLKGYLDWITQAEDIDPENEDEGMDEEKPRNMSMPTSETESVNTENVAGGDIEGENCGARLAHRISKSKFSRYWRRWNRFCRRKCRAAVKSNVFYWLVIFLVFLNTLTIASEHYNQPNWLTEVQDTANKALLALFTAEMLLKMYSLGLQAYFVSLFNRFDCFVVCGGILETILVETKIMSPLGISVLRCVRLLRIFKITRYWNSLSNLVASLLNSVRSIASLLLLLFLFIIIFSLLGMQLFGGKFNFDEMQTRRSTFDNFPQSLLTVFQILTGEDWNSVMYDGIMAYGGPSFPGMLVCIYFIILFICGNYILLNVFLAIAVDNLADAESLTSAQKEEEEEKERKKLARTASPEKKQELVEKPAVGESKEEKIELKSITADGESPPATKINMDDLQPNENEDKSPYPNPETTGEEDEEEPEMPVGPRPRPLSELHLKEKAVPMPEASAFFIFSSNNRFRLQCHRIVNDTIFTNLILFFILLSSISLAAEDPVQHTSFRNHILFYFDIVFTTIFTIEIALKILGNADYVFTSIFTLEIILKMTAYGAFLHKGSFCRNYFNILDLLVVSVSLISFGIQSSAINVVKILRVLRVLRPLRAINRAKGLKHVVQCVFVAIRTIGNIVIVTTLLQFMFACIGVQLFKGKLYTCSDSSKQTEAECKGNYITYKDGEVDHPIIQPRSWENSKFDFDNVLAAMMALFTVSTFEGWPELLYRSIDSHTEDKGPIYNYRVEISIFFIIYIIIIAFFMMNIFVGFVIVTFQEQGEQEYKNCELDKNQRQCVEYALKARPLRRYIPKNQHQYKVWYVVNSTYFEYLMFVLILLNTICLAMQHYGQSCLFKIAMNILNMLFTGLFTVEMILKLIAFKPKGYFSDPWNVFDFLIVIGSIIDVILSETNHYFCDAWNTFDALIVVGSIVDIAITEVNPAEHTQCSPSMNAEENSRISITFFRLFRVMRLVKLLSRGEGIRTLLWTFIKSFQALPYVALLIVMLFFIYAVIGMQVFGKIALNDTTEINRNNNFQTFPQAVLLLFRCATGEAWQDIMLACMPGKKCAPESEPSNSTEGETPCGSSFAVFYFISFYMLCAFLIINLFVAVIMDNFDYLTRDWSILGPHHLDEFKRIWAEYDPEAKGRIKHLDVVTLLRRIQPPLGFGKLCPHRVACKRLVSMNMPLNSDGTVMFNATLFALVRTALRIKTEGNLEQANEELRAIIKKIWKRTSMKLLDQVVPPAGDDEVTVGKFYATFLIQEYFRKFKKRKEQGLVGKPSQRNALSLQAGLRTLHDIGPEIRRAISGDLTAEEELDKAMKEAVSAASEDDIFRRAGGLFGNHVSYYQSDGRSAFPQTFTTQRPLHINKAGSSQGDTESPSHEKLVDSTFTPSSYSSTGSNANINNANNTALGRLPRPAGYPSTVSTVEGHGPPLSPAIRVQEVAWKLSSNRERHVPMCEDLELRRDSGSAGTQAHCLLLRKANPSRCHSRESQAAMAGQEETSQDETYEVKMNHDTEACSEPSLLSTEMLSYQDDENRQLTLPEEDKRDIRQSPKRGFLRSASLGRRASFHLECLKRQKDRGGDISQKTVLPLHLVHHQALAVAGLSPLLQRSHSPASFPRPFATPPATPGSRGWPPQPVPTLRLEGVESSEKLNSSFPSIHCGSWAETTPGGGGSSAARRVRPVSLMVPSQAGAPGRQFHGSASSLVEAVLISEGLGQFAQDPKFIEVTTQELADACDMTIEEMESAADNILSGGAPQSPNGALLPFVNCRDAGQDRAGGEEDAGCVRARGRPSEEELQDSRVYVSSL
Chain of Sodium channel protein type 5 subunit alpha (Q14524 whole entry): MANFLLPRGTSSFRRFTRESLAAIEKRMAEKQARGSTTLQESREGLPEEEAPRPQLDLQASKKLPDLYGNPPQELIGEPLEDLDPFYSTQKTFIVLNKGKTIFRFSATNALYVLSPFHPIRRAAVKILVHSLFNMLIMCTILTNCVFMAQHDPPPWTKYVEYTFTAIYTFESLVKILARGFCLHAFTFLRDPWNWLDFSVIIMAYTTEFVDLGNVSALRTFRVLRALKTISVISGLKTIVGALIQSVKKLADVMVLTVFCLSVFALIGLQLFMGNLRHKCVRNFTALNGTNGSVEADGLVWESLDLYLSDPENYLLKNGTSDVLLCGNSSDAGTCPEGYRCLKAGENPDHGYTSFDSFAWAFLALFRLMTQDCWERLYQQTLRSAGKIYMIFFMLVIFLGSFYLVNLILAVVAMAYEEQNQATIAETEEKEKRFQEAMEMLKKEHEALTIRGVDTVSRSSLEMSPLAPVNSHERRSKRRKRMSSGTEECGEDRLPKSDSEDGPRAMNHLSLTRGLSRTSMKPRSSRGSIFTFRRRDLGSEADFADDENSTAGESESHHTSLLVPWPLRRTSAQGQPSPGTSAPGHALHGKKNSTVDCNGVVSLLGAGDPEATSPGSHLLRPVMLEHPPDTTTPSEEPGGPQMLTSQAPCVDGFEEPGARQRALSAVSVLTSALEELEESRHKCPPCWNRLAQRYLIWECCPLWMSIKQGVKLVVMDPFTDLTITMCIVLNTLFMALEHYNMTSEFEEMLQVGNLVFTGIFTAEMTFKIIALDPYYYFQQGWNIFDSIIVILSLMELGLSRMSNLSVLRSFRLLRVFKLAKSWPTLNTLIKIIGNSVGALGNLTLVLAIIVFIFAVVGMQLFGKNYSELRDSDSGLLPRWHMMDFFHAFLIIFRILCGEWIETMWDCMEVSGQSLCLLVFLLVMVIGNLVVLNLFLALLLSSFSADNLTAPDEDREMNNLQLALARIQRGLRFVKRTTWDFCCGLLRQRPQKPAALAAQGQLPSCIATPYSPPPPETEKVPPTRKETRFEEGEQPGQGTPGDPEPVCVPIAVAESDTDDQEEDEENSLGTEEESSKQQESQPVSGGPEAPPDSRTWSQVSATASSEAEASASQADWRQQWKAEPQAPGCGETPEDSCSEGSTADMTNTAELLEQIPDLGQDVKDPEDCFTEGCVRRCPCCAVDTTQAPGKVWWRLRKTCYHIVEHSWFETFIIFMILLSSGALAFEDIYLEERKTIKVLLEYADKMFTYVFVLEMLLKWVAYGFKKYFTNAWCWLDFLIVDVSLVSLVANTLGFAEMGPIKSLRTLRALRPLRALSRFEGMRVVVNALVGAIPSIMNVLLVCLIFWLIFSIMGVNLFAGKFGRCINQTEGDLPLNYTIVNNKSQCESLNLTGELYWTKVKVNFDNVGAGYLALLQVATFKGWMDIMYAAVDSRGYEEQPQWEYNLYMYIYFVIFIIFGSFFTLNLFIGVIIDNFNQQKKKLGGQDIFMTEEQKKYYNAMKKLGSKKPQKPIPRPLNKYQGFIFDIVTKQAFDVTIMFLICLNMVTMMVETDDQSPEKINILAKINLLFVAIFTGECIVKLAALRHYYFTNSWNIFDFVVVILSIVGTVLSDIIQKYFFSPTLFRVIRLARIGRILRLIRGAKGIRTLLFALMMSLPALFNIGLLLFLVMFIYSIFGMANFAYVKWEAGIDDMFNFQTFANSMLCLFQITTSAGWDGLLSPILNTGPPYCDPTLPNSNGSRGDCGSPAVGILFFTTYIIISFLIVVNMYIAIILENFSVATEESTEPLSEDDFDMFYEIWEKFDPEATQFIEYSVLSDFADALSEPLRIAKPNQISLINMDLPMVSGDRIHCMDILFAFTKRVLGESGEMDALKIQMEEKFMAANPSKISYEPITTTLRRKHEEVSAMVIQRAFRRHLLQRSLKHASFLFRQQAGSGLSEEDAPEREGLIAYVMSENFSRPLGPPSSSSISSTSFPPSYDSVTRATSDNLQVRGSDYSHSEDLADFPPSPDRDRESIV

C[C@]1(CN2Cc3nc(-c4ccc(F)cc4)sc3C2)CN=C(N)O1
MIC50 [1]: 0.012 µg/mL (≈ 0.0361 µM) | MIC90 [1]: 0.03 µg/mL (≈ 0.0903 µM) | F [2]: 31.2% | AUClast [3]: 4520 ng·h | pIC50 (Cytochrome P450 1A2): < 4.00 | pIC50 (Cytochrome P450 2B6): < 4.00 | half-life [4]: 362 min | solubility [5]: 32.2 µM (≈ 10.7 µg/mL) | half-life [6]: 63 min | pIC50 [7]: < 4.88 | half-life [8]: 167 min | half-life [9]: 68 min | MIC [10]: 0.109 µg/mL (≈ 0.328 µM) | MIC [11]: 0.035 µg/mL (≈ 0.105 µM) | Drug uptake [12]: Active | clearance [13]: 12 mL/min/kg | Activity [14]: 1 log10CFU | MIC [15]: 5.63 µg/mL (≈ 16.9 µM) | clearance [16]: 24.6 mL/min/kg | fraction unbound [17]: 0.018 | pIC50 [18]: < 4.88 | Papp B→A [19]: 15.8 ×10⁻⁶ cm/s | pIC50 (Cytochrome P450 2C9): < 4.00
